In the METLIN SMRT retention time set (Domingo-Almenara et al. 2019):

assay: gradient 5% acetonitrile 3 min, to 50% in 2 min, to 85% in 15 min, held 3 min, 100 µL/min; details: column: Zorbax Extend-C18 2.1 x 50 mm; eluents: water / acetonitrile, 0.1% formic acid
Method in brief: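 Using water and acetonitrile that each contained 0.1% formic acid, mixtures of ~100 pure standards were separated at 100 μL/min on a Zorbax Extend-C18 column (2.1 × 50 mm, 1.8 μm). The HPLC fed a quadrupole time-of-flight mass spectrometer working in positive and negative ionization mode, with dead and dwell volumes of 40 μL and 900 μL. Data were acquired over 3 months. Retention time was read from computationally picked adduct peaks after manual inspection of each.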

SMILES	RP-LC retention time [s]
NC(=O)c1cc(-c2ccccc2F)nc2ccccc12	740
CN(C)S(=O)(=O)c1ccc2c(c1)N(CC(=O)NCCc1cccs1)C(=O)C1CCCCN21 (configuration not stated)	876
CCCCCCNCc1ccc2c(c1)n(C)c(=O)n2C	604
CCCN(CC1CCOC1)C(=O)c1cccc(Cl)c1 (configuration not stated)	814
CCn1cnc(S(=O)(=O)N2CCC(C(=O)NCc3ccc(OC)cc3)CC2)c1	674
CC(C)(C)NC(=O)C(=O)NCC1CCN(C(=O)COc2ccccc2)CC1	747
Cc1ccc(C)c(NC(=O)c2cc(C(C)C)n3nccc3n2)c1	1240
COC(=O)c1ccc2c(=O)n(-c3cc(C)cc(C)c3)c(N3CCCC3)nc2c1	1240
Cc1ccc(-c2nocc2CCC(=O)NCc2ccc(F)cc2)cc1	919
CCCN1C(=O)COc2ccc(-c3csc(NC(=O)c4ccc(Br)cc4)n3)cc21	1160
c1cc(-c2noc(C3CC3)n2)cc(N2CCOCC2)n1	695
Cc1nn(C2CCS(=O)(=O)C2)c(C)c1S(=O)(=O)NCc1ccco1 (configuration not stated)	638
Cc1onc(-c2ccccc2Cl)c1C(=O)N1CCC2(CC1)CC(=O)c1ccccc1O2	858
CC1(C(=O)NCc2ccccc2)Oc2cccnc2NC1=O (configuration not stated)	638
Cc1ccnc(N2CCCC(C(=O)NCC3CCN(Cc4ccc(Cl)cc4)CC3)C2)n1 (configuration not stated)	624
COC(=O)c1ncn2c1C(=O)N(Cc1ccccc1)C(C)(C(=O)NC1CCCCC1)C2 (configuration not stated)	750
Cc1cccc(N2C(=O)CN(CCc3ccc(F)cc3)[C@H]3CS(=O)(=O)C[C@H]32)c1	839
O=C(NCCc1nc2cccnc2n1-c1ccccc1)C1CCCCC1	730
CNc1nc(N2CCOCC2)nc2ccccc12	582
Cc1oc(-c2ccc(C(=O)N3CCN(c4ccccn4)CC3)cc2)nc1CN1CCc2ccccc21	766
Cc1ccccc1C1CCCN1C(=O)c1c(Cl)cnn1C (configuration not stated)	892
O=C(Nc1cccc(Br)c1)C1CCCN(c2ncc(-c3ccccc3)cn2)C1 (configuration not stated)	1250
Cc1sc(NC(=O)COc2ccc(Cl)cc2)nc1-c1ccc2c(c1)NC(=O)C(C)O2 (configuration not stated)	1020

SMILES	RP-LC retention time [s]
Cn1c(=O)cc(SCC(=O)N2CCN(c3ccccn3)CC2)c2ccc(Cl)cc21	639
COC(=O)c1ccc(-c2nc3cnccn3c2NC2CCCC2)cc1	877
CCn1cc(-c2nc(CC(=O)N3CCN(c4ccc(F)cc4)CC3)cs2)c2cccnc21	921
CCn1nccc1-c1cccc(-c2noc(CNS(=O)(=O)c3ccc(Cl)cc3)n2)c1	986
Cc1cc(C)n(C(=O)c2ccc(Cl)cc2[N+](=O)[O-])n1	927
COc1ccc(Cn2c(C)c(CNCc3ccco3)c(C(=O)O)c2C)cc1	673
Cc1c(CNCCc2ccco2)c(C(=O)O)c(C)n1Cc1ccc(F)cc1	709
O=C(NC[C@H](O)CO)c1ccncc1Nc1ccc(I)cc1F	671
COC[C@@H]1CN(S(=O)(=O)c2c(C)noc2C)C[C@H]1c1ccncc1	570
O=C(Nc1ccc(OCc2nnc(-c3ccccc3)o2)cc1)c1ccc(Br)o1	936
Cc1cc(N2CCN(C)CC2)nc(N2CCN(C(=O)c3ccc(-c4ccccc4)cc3)CC2)n1	585
Cc1ccc2[nH]c(=O)c(CCC(=O)N3CCN(C4CCCCC4)CC3)cc2c1	619
COc1cccc(Cn2c(=O)c3cnc(-c4ccncc4)nc3n(C)c2=O)c1	805
Cc1ccc(Nc2c(-c3cccc(Cl)c3)nc3ccccn23)cc1	780
CCOc1cc([C@@H](CS(C)(=O)=O)N2C(=O)c3cccc(NC(C)=O)c3C2=O)ccc1OC	859
CC(C)C(=O)Nc1nc(-c2ccc3c(c2)NC(=O)CO3)cs1	739
CC(C)CCNC(=O)C1CCCN(c2ncnc3c2oc2ccccc23)C1 (configuration not stated)	786
Cc1cc(C)c(CNC(=O)c2c(C)sc3ccn(C)c(=O)c23)c(C)c1	921
COCCNC(=O)c1cc2c(s1)CCN(C(C)=O)C2	588
O=C(CN1CCN(Cc2ccc(F)cc2)C1=O)NCc1ccc(N2CCOCC2)cc1	712
Nc1cc(C2CCN(C(=O)c3cccnc3)CC2)no1	554
COc1ccc(OC)c(NC(=O)Nc2c(-c3ccc(F)cc3)nc3ccccn23)c1	625

Second part, the molecule after the results:

RP-LC retention time [s]	SMILES
779	O=C(Cn1nc2c(N3CCOCC3)nccn2c1=O)Nc1ccc(Br)cc1F
804	O=C(Cn1c(C(F)(F)F)nc2ccccc21)NCc1ccc2c(c1)OCCCO2
682	CCNc1cc(N2CCC(CCC(=O)Nc3ccc(OCC)cc3)CC2)ncn1
725	CCN1CCn2cc(S(=O)(=O)Nc3cc(F)ccc3C)cc2C1=O
700	CCn1cnc2cc(-c3noc(C4CC(=O)N(c5ccc(C)cc5)C4)n3)ccc21 (configuration not stated)
741	COc1cc(OC)cc(C(=O)NC2CCN(c3cc(-c4cccs4)[nH]n3)C2)c1 (configuration not stated)
1140	CC(C)C(=O)c1cn(CC(=O)COc2ccc(Oc3ccccc3)cc2)c2ccc(C(=O)O)cc12
699	CCNC(=O)C1CCCN(S(=O)(=O)c2cc(OC)ccc2OC)C1 (configuration not stated)
808	COc1cccc(NC(=O)C2(C)Oc3cccnc3N(C)C2=O)c1 (configuration not stated)
906	COc1ccc(Cl)cc1S(=O)(=O)N1CCCN(c2ccc(=O)n(-c3ccccc3)n2)CC1
1070	O=C(NC1CCCCC1)C1CCCN(c2ncc(-c3ccccc3)cn2)C1 (configuration not stated)
993	COc1ccc(NC(=O)N2CCN(c3nc4ccccc4nc3C(F)(F)F)CC2)cc1
985	COc1cc(-c2noc(CN3C(=O)COc4ccc(C)cc43)n2)cc(OC)c1OC
880	CCCN(Cc1ccsc1)C(=O)c1ccc(OC)c(OC)c1OC
808	CCCCN1C(=O)C(CC(=O)NC2CCCC2)Sc2ncccc21 (configuration not stated)
693	COc1ccc(NC(=O)C2CCCN(c3cnc4nccnc4c3)C2)c(C)c1 (configuration not stated)
657	O=C(NCc1cccnc1)c1cccn2c(=O)c3cc(Cl)ccc3nc12
936	CN(C)Cc1ccc(S(=O)(=O)n2ccc(/C=C/C(=O)NO)c2)cc1
839	O=C(NC1CCN(c2cc(-c3ccc(Cl)cc3)[nH]n2)C1)c1ccc(F)c(F)c1 (configuration not stated)
672	Cc1cc(N2CCN(C(=O)C3CCCCC3)CC2)nc(N2CCCC2)n1
1210	COc1ccc(-n2/c(=N/C(=S)N(C)C)ss/c2=N\C(=S)N(C)C)cc1
761	Clc1nc2nc3n(c2nc1Cl)CCC3
